Experiments:
SARS-CoV-2 = SARS-CoV-2 infected rhesus macaques treated with FNC (viral load, blood tests, histology, X-ray); format: in vivo
Description: RM monkeys were used to learn whether FNC could inhibit SARS-CoV-2 in vivo. In this experiment, eight monkeys were first infected with SARS-CoV-2 using the protocol established previously with an infection dose of 10^6 pfu per monkey.[18] Among the eight animals, four were untreated (as vehicle control; two male and two female) and four were treated with FNC (0.07 mg/kg, qd, oral; two male and two female) 12 h post-infection. The treatment continued for 7 days from Day 1 to Day 7. The experiment was terminated on Day 8 after viral infection. Clinical manifestations, blood indications, and viral load in swabs and blood samples was monitored during the course, and organs were examined after euthanasia at 8 dpi. The experimental protocol is shown in Supplementary Fig. 5.
Fig. 3 FNC inhibited SARS-CoV-2 and treated COVID-19 in vivo. Eight RM monkeys were inoculated with SARS-CoV-2, followed by vehicle or FNC treatment 12 h post infection and continued for 7 days (see Materials and methods). […] The regions of interest (ROI) are boxed in white, and their magnified photos are shown below. Scale bars, 500 µm (up) and 20 µm (below). c White blood cells (WBC), neutrophil granulocytes (NG), monocytes (MC), and platelets basically remained stable by FNC after SARS-CoV-2 infection. d FNC increased the percent of lymphocytes, alleviated CRP production, and protected the heart and liver functions. Data are presented as mean ± SEM (n = 4); *p < 0.05, infected monkeys in FNC group vs. infected monkeys in the untreated group, by Mann–Whitney U test. CRP C reaction protein, AST aspartate aminotransferase TEXT PRINTED IN THE PICTURE: (a) FNC: Lung Viral load (copies /g): ND (17031); Lung Viral load (copies /g): ND (17374); Thymus Viral load (copies /g): ND (17017); Thymus Viral load (copies /g): ND (17031); Thymus Viral load (copies /g): ND (17368); Thymus Viral load (copies /g): ND (17374) DOUBTS OF THE COPYIST ABOUT THIS PICTURE: Panel a: the only printed results are "ND" labels over single animal numbers. The red ones (FNC group) are given. The black ND labels of the untreated group (Lung 17032; Thymus 17032, 17041) are left out because no substance was given. / Panel d: 0.083 printed in the CRP and AST plots is taken as a p value and left out.
The rhesus macaques’ experiment was done by following the method described before^1,2. Briefly, healthy rhesus macaques (4 male and 4 female, 3-4 years old) were used for the study. SARS-CoV-2 was from the Center of Diseases Control, Guangdong, China, and amplified in the Vero-E6 cells. Animal groups and experimental schedules were outlined in Fig S4. We inoculated rhesus macaques with 10^6 pfu/ml SARS-CoV-2 intratracheally (0.5ml) and intranasally (0.5ml). FNC (0.07mg/kg, qd, orally) was given 12 h after viral inoculation and continued for 7 days. The animals were monitored daily for physical examination. Chest X-ray radiograph of the anaesthetized monkeys was done with 55-75v and 8-12.5mA with the Mobile digital medical X-ray photography system (MobileCooper, Browiner China).
Quantification of viral genome in swabs and tissue samples was done as described before^1. Viral genome copy in samples were quantified with real time RT-PCR, using TaqMan Fast Virus 1-Step Master Mix (ThermoFisher, US) and conducted on the CFX384 Touch Real-Time PCR Detection System (Biorad, US). Purified RNA of SARS-CoV-2 served as a standard curve. The operation conditions of RT-PCR were set as following: 25℃ for 2min, 50℃ for 15min, 95℃ for 2min, then 40 cycles at 95℃ 5sec and 60℃ 31sec. Primers/probe specific for the NP gene were synthesized based on sequences from China CDC: Target-2-F:GGGGAA […],
By the end of the experiment, major organs of the monkeys were taken and checked with naked eye examination. Tests for blood biochemistry and hematology indexes, including lymphocyte analysis and organ function assays, were done based on previous reports^1,2. […]

thymus cells = format: in vivo, rhesus macaques
[1] = FNC-treated monkeys vs untreated
[2] = FNC-treated monkey #17368, scRNA-seq

## [N-]=[N+]=N[C@]1(CO)O[C@@H](n2ccc(N)nc2=O)[C@@H](F)[C@@H]1O [FNC, 2′-deoxy-2′-β-fluoro-4′-azidocytidine]
SARS-CoV-2; [1]
  CK and AST levels: decreased CK and AST levels, though insignificantly
  body temperature and body weight changes after SARS-CoV-2 infection: not different
SARS-CoV-2; RM monkeys, FNC 0.07 mg/kg qd oral vs untreated
  lesions in the lung (HE staining): reduced the lesions substantially
SARS-CoV-2; RM monkeys, FNC 0.07 mg/kg qd oral, 7 days, vs untreated
  viral load in nasal swabs, blood, lungs and thymus: significantly reduced viral load
SARS-CoV-2; RM monkeys, FNC 0.07 mg/kg, qd, orally
  ground-glass opacities in chest X-ray: lessened ground-glass opacities
SARS-CoV-2; four virus (+) monkeys treated with FNC, termination of the experiment
  viral load in the thymus: negative
Thymus cells; [2]
  Proportion of B cells in thymus: 4.1%
  Proportion of CD4 cells in thymus: 17.5%
  Proportion of CD8 cells in thymus: 22.8%
  Proportion of NKT cells in thymus: 4.6%
Thymus cells; FNC-treated monkey #17368 vs untreated #17041
  expression of IL-4, IL-13, and IL-10 in the thymus cells: elevated

— article PMC8646019, “Azvudine is a thymus-homing anti-SARS-CoV-2 drug effective in treating COVID-19 patients” (Signal Transduction and Targeted Therapy, 2021)
